From patent US8338422B2, “Indolin-2-ones and aza-indolin-2-ones” (Janssen Pharmaceutica NV, priority 2007, dated 2012)
“And” between values parts separate entries of the source, which are not always exact repeats. Identical values can stand only once.

How the values were obtained:
Assay type in all cases: biochemical
PLK4 (h) = PLK4 (h) (Homo sapiens, UniProt O00444); test: PLK-4 human kinase assay (SPA); conditions: for IC50: read-out: PLK4 pIC50 (converted)
Experimental: (§1) The in vitro inhibition of a panel of kinases was assessed using either the scintillation proximity assay (SPA) as described by Cook, N. D. et al., Advances in Experimental Medicine and Biology (1991), 36; p. 525-528; or the Fluorescence Resonance Energy Transfer (FRET) technology as described by Rodems, S. M. et al., Assay Drug Develop. Technol. (2002), 1; p. 9-19.
(§2) In the SPA technology the activity of the kinase of interest is measured using an appropriate biotinylated substrate that is incubated with the aforementioned kinase protein in the presence of (^33P) radiolabeled ATP. (^33P) Phosporylation of the substrate is subsequently measured through binding of the phosphorylated substrate to streptavidine coated beads that are based on the scintillant poly(vinyl toluene) (PVT-Beads). The scintillation intensity is detected by imaging on Leadseeker.
(§3) All kinases are pre-diluted to a 10× working concentration prior to addition into the assay. The composition of the dilution buffer for each kinase is detailed below.
In a final reaction volume of 30 μl PLK4 (h) (19 μg/ml) is incubated with 50 mM Hepes pH 8.0, 10 mM MgCl2, 50 mM NaCl, 1 mM NaF, 1 mM DTT, 10 μM of peptide Biotin-RPRGQRDSSYYWE-OH, 1 μM ATP and 2 nM [γ-^33P-ATP] (6.0 μCi/ml). After incubation of 60 minutes at room temperature, the reaction is stopped by addition of 40 μl, of stop solution containing 8.7 mM EDTA, BSA 0.17%, 0.17% Triton X-100, 1.7 mg/ml SPA beads (GE-healthcare). The plate is centriguged and read for Scintillation imaging on Leadseeker.

AuroraB (h) = AuroraB (h) (Homo sapiens, UniProt Q96GD4); test: Aurora-B human kinase assay (SPA); conditions: for IC50: read-out: AuroraB pIC50 (converted)
Experimental: as §1, §2, §3
In a final reaction volume of 30 μl, AuroraB (h) (0.5 μg/ml) is incubated with 60 mM Hepes pH 7.5, 3 mM MgCl2, 3 mM MnCl2, 3 μM Na3VO4, 0.05 mg/ml PEG, 2 mM DTT, 3 μM Biotin-[…]-OH, 0.5 μM ATP and 2.2 nM [γ-^33P-ATP] (6.8 μCi/ml). After incubation of 60 minutes at room temperature, the reaction is stopped by addition of 40 μL of stop solution containing 8.7 mM EDTA, BSA 0.17%, 0.17% Triton X-100, 5 mg/ml SPA beads (GE-healthcare). The plate is centriguged and read for Scintillation imaging on Leadseeker.

GSK3β (h) = GSK3β (h) (Homo sapiens, UniProt P49841); test: GSK-3β human kinase assay (SPA); conditions: for IC50: read-out: GSK3B pIC50 (converted)
Experimental: as §1, §2, §3
In a final reaction volume of 30 μl, GSK3β (h) (1 μg/ml) is incubated with 25 mM Tris pH 7.4, 10 mM MgCl2, 1 mM DTT, 1 μM peptide Biotin-KRREILSRRPSYR-OH, 1 μM ATP and 2 nM [γ-^33P-ATP] (6.0 μCi/ml). After incubation of 60 minutes at room temperature, the reaction is stopped by addition of […] of stop solution containing 8.7 mM EDTA, BSA 0.17%, 0.17% Triton X-100, 6.25 mg/ml SPA beads (GE-healthcare). The plate is centriguged and read for Scintillation imaging on Leadseeker.

CDK1/CyclinB (h) = CDK1/CyclinB (h) (Homo sapiens, UniProt P06493); test: CDK1/CyclinB human kinase assay (FRET); conditions: for IC50: read-out: CDK1 pIC50 (converted)
Experimental: as §1
In the FRET technology the activity of the kinase of interest is measured using an appropriate substrate that is labeled with two fluorophores (coumarin and fluorescein). Phosphorylation is determined using a developing reagent comprising a protease that recognizes and cleaves nonphosphorylated peptides. Cleavage will disturb the FRET between the fluorescein and coumarin on the peptide. Uncleaved, phosphorylated peptides maintain the FRET signal. A ratiometric readout of the donor emission over the acceptor emission quantitates the reaction process.
as §3
In a final reaction volume of 10 μl, CDK1/CyclinB (h) (0.2 μg/ml) is incubated with 50 mM Hepes pH 7.5, 10 mM MgCl2, 1 mM EGTA, 0.01% Brij-35, 2 μM Z'lyte Ser/Thr peptide 12 and 10 μM ATP (Invitrogen's FRET assay). After incubation of 60 minutes at room temperature, the reaction is stopped by addition of 5 μL development reagent containing protease mix. After 60 minutes room temperature the development reaction is stopped by adding 5 μl stop solution. The plate is then read in fluorescence plate reader with excitation: 390 nm and dual emission: 460 and 538 nm. Emission ratio is determined to the formula=Emission signal intensity at 460 nm/Emission signal intensity at 538 nm.

Chain of GSK3β (h) (P49841 whole entry): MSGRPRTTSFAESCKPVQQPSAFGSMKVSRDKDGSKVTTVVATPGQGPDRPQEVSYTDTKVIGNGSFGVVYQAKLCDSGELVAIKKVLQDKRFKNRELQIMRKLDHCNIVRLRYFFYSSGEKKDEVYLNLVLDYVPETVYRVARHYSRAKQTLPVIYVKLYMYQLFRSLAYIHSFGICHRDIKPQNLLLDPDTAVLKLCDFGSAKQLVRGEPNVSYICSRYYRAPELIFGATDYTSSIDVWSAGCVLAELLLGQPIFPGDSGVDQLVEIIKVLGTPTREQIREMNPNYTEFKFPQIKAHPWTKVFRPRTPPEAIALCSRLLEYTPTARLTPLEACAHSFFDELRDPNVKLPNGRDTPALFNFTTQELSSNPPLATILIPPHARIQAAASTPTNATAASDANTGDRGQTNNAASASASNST
Chain of AuroraB (h) (Q96GD4 whole entry): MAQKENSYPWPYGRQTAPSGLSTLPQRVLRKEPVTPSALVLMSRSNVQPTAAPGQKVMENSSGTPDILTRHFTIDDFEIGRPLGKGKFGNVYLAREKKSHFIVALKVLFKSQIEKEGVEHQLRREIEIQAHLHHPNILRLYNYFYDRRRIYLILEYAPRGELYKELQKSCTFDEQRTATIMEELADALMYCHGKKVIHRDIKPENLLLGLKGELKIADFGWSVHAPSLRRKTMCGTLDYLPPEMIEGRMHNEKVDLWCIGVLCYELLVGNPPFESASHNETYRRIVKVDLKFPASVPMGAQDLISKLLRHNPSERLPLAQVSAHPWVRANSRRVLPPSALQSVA
Chain of CDK1/CyclinB (h) (P06493 whole entry): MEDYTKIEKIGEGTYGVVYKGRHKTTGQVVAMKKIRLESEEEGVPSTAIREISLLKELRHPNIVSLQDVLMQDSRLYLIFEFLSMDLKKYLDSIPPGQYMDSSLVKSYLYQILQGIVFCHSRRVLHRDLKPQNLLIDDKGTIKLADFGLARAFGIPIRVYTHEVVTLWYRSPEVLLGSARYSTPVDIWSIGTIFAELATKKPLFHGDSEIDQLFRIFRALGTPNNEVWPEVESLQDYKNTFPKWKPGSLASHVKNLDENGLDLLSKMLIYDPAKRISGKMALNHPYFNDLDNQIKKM
Chain of CDK1/CyclinB (h) (P14635 whole entry partner): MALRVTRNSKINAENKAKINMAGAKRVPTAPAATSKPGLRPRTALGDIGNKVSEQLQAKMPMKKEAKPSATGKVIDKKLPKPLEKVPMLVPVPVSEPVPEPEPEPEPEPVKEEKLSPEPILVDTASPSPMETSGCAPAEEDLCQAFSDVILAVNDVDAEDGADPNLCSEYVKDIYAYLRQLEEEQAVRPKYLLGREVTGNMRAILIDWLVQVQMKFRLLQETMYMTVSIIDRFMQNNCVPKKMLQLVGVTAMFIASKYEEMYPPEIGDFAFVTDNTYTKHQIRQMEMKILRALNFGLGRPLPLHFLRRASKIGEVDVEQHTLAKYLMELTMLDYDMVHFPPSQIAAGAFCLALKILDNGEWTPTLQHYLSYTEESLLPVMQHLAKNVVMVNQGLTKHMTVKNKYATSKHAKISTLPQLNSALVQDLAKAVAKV
Chain of PLK4 (h) (O00444 whole entry): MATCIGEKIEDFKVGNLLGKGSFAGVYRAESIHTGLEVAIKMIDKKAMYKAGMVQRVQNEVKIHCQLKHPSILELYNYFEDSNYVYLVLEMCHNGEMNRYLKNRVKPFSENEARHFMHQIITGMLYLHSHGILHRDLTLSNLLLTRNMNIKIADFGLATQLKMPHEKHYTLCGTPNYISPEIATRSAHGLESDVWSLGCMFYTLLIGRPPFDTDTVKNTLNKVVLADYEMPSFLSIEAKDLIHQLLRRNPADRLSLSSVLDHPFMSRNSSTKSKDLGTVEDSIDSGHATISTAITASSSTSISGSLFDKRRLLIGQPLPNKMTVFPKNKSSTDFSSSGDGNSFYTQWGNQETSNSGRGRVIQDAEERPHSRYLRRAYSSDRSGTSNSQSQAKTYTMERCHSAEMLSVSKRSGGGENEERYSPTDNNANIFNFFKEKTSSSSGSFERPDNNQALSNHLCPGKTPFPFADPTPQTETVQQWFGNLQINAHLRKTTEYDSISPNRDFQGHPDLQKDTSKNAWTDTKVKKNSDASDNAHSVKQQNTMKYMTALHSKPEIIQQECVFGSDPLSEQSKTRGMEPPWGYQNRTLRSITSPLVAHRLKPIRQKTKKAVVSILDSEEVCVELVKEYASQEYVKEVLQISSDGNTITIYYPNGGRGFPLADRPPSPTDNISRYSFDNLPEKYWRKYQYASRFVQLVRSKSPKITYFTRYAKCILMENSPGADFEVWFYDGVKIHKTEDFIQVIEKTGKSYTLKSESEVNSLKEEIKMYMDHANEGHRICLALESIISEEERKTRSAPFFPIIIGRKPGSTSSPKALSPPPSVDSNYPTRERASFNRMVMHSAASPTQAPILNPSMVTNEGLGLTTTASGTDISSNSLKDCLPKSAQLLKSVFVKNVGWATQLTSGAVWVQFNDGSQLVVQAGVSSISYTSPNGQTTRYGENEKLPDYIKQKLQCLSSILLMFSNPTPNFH

IC50 (PLK4 (h)) | IC50 (AuroraB (h)) | IC50 (GSK3β (h)) | IC50 (CDK1/CyclinB (h)) | Structure (SMILES) | PLK4 pIC50 (PLK4 (h)) | AuroraB pIC50 (AuroraB (h)) | GSK3B pIC50 (GSK3β (h)) | CDK1 pIC50 (CDK1/CyclinB (h))
3.72 µM | > 10 µM | 0.851 µM | 1.78 µM | CN1CCCC(=O)N(C)CCCNc2ncnc3c2/C(=C/Nc2cccc(c2)C1)C(=O)N3 [Compound 73] |  |  |  | 
6.17 µM | > 10 µM | 1.05 µM | > 10 µM | CN1CCCC(=O)N(C)CCNc2ncnc3c2/C(=C/Nc2cccc(c2)C1)C(=O)N3 [Compound 82] |  |  |  | 
6.92 µM | > 10 µM | 1.82 µM | > 10 µM | CCN1CCCCCC(=O)N2CCN(CC2)c2cccc3c2C(=CNc2cccc(c2)S(=O)(=O)N(C)CC1=O)C(=O)N3 (mixture of isomers) [Compound 1] |  |  |  | 
1.86 µM and 4.17 µM | 8.71 µM and 7.76 µM |  |  | CN1CCCNc2ncnc3c2/C(=C/Nc2cccc(c2)OCCN(C)[C@H](CO)C1=O)C(=O)N3 [Compound 103] |  |  |  | 
> 10 µM | > 10 µM | 1.58 µM and 1.35 µM |  | O=C1Nc2ncnc3c2/C1=C/Nc1cccc(c1)OCCCN1C[C@H](O)C[C@@H]1C(=O)N1CCN3CC1 [Compound 175] |  |  |  | 
0.589 µM | 6.46 µM | 0.0631 µM |  | COCCN1CCOc2cccc(c2)N/C=C2\C(=O)Nc3ncnc(c32)NCCCN(C)C(=O)C1 [Compound 163] |  |  |  | 
0.692 µM | > 10 µM | 0.447 µM | 7.59 µM | CN1CCN(c2ccc3cc2OCCCCCC(=O)N(C)CCNc2ncnc4c2/C(=C/N3)C(=O)N4)CC1 [Compound 141] |  |  |  | 
3.31 µM | 9.12 µM | 0.813 µM | 8.91 µM | CN1CCCCC(=O)N(C)CCNc2ncnc3c2/C(=C/Nc2cccc(c2)C1)C(=O)N3 [Compound 79] |  |  |  | 
> 10 µM | > 10 µM | 1.62 µM and 1.86 µM |  | COCCN1CCCOc2cc(ccc2Cl)N/C=C2\C(=O)Nc3ncnc(c32)NCCN(C)C(=O)C1 [Compound 174] |  |  |  | 
 |  |  |  | CN1CCCNc2ncnc3c2C(=CNc2cccc(c2)OCCCCCC1=O)C(=O)N3 (mixture of isomers) [Compound 71] | 6.7 | 6.15 | 7.21 | 5.56
0.479 µM | 0.347 µM | 0.0776 µM | 2.34 µM | COc1ccc2cc1OCCCCCC(=O)N(C)CCCNc1ncnc3c1/C(=C/N2)C(=O)N3 [Compound 66] |  |  |  | 
> 10 µM | > 10 µM | 0.309 µM |  | O=C1Nc2ncnc3c2/C1=C/Nc1cccc(c1)OCCN1C[C@H](O)C[C@@H]1C(=O)N1CCN3CC1 [Compound 171] |  |  |  | 
1.95 µM | 6.46 µM | 0.0776 µM |  | CN1CCCNc2ncnc3c2/C(=C/Nc2cccc(c2)OCCN(C)[C@H](CO)C1=O)C(=O)N3 [Compound 102] |  |  |  | 
 | > 10 µM | 1.51 µM |  | O=C1Nc2ncnc3c2/C1=C/Nc1ccc(Cl)c(c1)OCCN1C[C@H](O)C[C@@H]1C(=O)N1CCN3CC1 [Compound 196] |  |  |  | 
 | 3.98 µM | 4.68 µM |  | COCCN1CCCOc2cc(ccc2OC)N/C=C2\C(=O)Nc3ncnc(c32)NCCNC(=O)C1 [Compound 202] |  |  |  | 
3.63 µM | 5.25 µM | 0.759 µM |  | CN1CCNc2ncnc3c2/C(=C/Nc2cccc(c2)OCCN(C)[C@H](CO)C1=O)C(=O)N3 [Compound 164] |  |  |  | 
7.24 µM | > 10 µM |  | > 10 µM | CN1CCCCC(=O)N(C)CCNc2ncnc3c2/C(=C/Nc2ccc(N4CCOCC4)c(c2)C1)C(=O)N3 [Compound 93] |  |  |  | 

IC50 (PLK4 (h)) | IC50 (AuroraB (h)) | IC50 (GSK3β (h)) | IC50 (CDK1/CyclinB (h)) | Structure (SMILES) | PLK4 pIC50 (PLK4 (h)) | AuroraB pIC50 (AuroraB (h)) | GSK3B pIC50 (GSK3β (h)) | CDK1 pIC50 (CDK1/CyclinB (h))
3.09 µM |  |  |  | CN1CCCC(=O)N2CCN(CC2)c2ncnc3c2C(=CNc2cccc(c2)C1)C(=O)N3 (mixture of isomers) [Compound 11] |  |  |  | 
0.102 µM | > 10 µM |  |  | CN1CC(=O)NCC#Cc2cccc3c2/C(=C/Nc2cccc(c2)S1(=O)=O)C(=O)N3 [Compound 4] |  |  |  | 
 | > 10 µM | 0.0933 µM |  | COCCN1CCOc2cc(ccc2Cl)N/C=C2\C(=O)Nc3ncnc(c32)NCCCN(C)C(=O)C1 [Compound 205] |  |  |  | 
 |  |  |  | O=C1Nc2ncnc3c2C1=CNc1cc(ccc1Cl)OCCCCCC(=O)N1CCN3CC1 (mixture of isomers) [Compound 19] | <5 | <5 |  | 
4.37 µM and 7.24 µM | 2.51 µM and 6.46 µM | 0.0661 µM and 0.0457 µM |  | CN1CCCNc2ncnc3c2/C(=C/Nc2ccc(Cl)c(c2)OCCN(C)[C@H](CO)C1=O)C(=O)N3 [Compound 177] |  |  |  | 
3.09 µM | > 10 µM | 2.51 µM |  | COCCN1CCCOc2cccc(c2)N/C=C2\C(=O)Nc3ncnc(c32)NCCN(C)C(=O)C1 [Compound 162] |  |  |  | 
5.01 µM | > 10 µM | 1.1 µM |  | COc1ccc2cc1OCCCCCCC(=O)N(C)CCCN(C)c1ncnc3c1/C(=C/N2)C(=O)N3 [Compound 85] |  |  |  | 
5.13 µM | 7.41 µM | 0.832 µM |  | COCCN1CCOc2cccc(c2)N/C=C2\C(=O)Nc3ncnc(c32)NCCN(C)C(=O)C1 [Compound 161] |  |  |  | 
> 10 µM |  |  |  | O=C1Nc2ncnc3c2C1=CNc1ccc(Cl)c(c1)OCCCCC(=O)N1CCN3CC1 (mixture of isomers) [Compound 12] |  |  |  | 
> 10 µM | > 10 µM | 1.55 µM |  | CN1CCNc2ncnc3c2/C(=C/Nc2ccc(Cl)c(c2)OCCCN(C)[C@H](CO)C1=O)C(=O)N3 [Compound 190] |  |  |  | 
2.95 µM | > 10 µM | 0.372 µM |  | COc1ccc2cc1OCCCCCC(=O)N(C)CCCN(C)c1ncnc3c1/C(=C/N2)C(=O)N3 [Compound 84] |  |  |  | 
5.13 µM | > 10 µM | 0.457 µM |  | CN1CCNc2ncnc3c2/C(=C/Nc2ccc(Cl)c(c2)OCCN2C[C@H](O)C[C@@H]2C1=O)C(=O)N3 [Compound 194] |  |  |  | 
2.19 µM | > 10 µM | 1.02 µM |  | CN1CCNc2ncnc3c2/C(=C/Nc2cccc(c2)OCCN2C[C@H](O)C[C@@H]2C1=O)C(=O)N3 [Compound 166] |  |  |  | 
4.27 µM | > 10 µM | 0.575 µM |  | CN1CCNc2ncnc3c2/C(=C/Nc2cccc(c2)OCCCN(C)[C@H](CO)C1=O)C(=O)N3 [Compound 173] |  |  |  | 
3.16 µM | > 10 µM | 0.457 µM |  | O=C1COc2cccc(c2)N/C=C2\C(=O)Nc3ncnc(c32)N2CCN(CC2)C[C@@H](Cc2ccccc2)N1 [Compound 101] |  |  |  | 
 | 3.39 µM | 1.1 µM |  | CN1CCC(=O)N(C)CCNc2ncnc3c2/C(=C/Nc2ccc(Cl)c(c2)OCC(O)C1)C(=O)N3 (stereo not shown) [Compound 104] |  |  |  | 

Structure (SMILES) | IC50 (PLK4 (h)) | IC50 (AuroraB (h)) | IC50 (GSK3β (h)) | IC50 (CDK1/CyclinB (h)) | PLK4 pIC50 (PLK4 (h)) | AuroraB pIC50 (AuroraB (h)) | GSK3B pIC50 (GSK3β (h)) | CDK1 pIC50 (CDK1/CyclinB (h))
COCCN1CCCOc2cc(ccc2Cl)N/C=C2\C(=O)Nc3ncnc(c32)N2CCN(CC2)C(=O)C1 [Compound 180] | > 10 µM | > 10 µM | 3.47 µM and 5.37 µM |  |  |  |  | 
COc1ccc2cc1OCCCN(C)[C@H](CO)C(=O)N1CCN(CC1)c1ncnc3c1/C(=C/N2)C(=O)N3 [Compound 204] |  | > 10 µM | 1.35 µM |  |  |  |  | 
CN1CCCOc2cc(ccc2Cl)N/C=C2\C(=O)Nc3ncnc(c32)N2CCN(CC2)C(=O)[C@H]1CO [Compound 181] | > 10 µM | > 10 µM | 2.24 µM |  |  |  |  | 
